Experimental data: ChEMBL document CHEMBL5512659, “Structure optimizing of flavonoids against both MRSA and VRE” (Eur J Med Chem, 2024)
Active and inactive are the calls of the source. The rule behind the calls is not given here.

Columns and labels:
Staphylococcus aureus [1] = assay: Antibacterial activity against methicillin resistant Staphylococcus aureus clinical isolate 003 in presence of 140 mM/L Na+ (reference value: 0.25 ug/ml); assay type: functional
Staphylococcus aureus [2] = assay: Antibacterial activity against methicillin resistant Staphylococcus aureus clinical isolate 003 infected in cyclophosphamide immunosuppressed mouse model of skin wound infection assessed as increase in wound healing by measuring increase in VEGF expression at 1.25 to 5 mg/kg administered for 7 days and measured on day 8 by immunohistochemical analysis; assay type: functional, organism-based; conditions: dose 1.25-5 mg/kg, time 8.0 day
Enterococcus faecalis [3] = assay: Antibacterial activity against multidrug resistant Enterococcus faecalis ATCC 51299 infected in cyclophosphamide immunosuppressed mouse model of abdominal infection assessed as eradication of bacterial colonies in ascites at 1.25 to 5 mg/kg measured after 60 hrs relative to control; assay type: functional; conditions: dose 1.25-5 mg/kg
Enterococcus faecalis [4] = assay: Synergistic antibacterial activity against multidrug resistant Enterococcus faecalis ATCC 51299 assessed as fractional inhibitory concentration in presence of ampicillin; assay type: functional
Staphylococcus aureus [5] = assay: Synergistic antibacterial activity against methicillin resistant Staphylococcus aureus clinical isolate 003 assessed as fractional inhibitory concentration in presence of lincomycin hydrochloride; assay type: functional
Enterococcus faecalis [6] = assay: Antibacterial activity against multidrug resistant Enterococcus faecalis ATCC 51299 infected in cyclophosphamide immunosuppressed mouse model of abdominal infection assessed as reduction in cell swelling at 1.25 to 5 mg/kg measured after 60 hrs by H and E staining based analysis; assay type: functional, organism-based; conditions: dose 1.25-5 mg/kg
Staphylococcus aureus [7] = assay: (§1) Antibacterial activity against methicillin resistant Staphylococcus aureus clinical isolate 003 infected in cyclophosphamide immunosuppressed mouse model of skin wound infection assessed as wound healing at 1.25 to 5 mg/kg administered for 7 days and measured on day 8; assay type: functional, organism-based; conditions: dose 1.25-5 mg/kg, time 8.0 day
Staphylococcus aureus [8] = assay: as §1, with “healing by measuring wound area” for “healing”, “at” for “at 1.25 to”, “8 (reference value: 32.1 […])” for “8”; assay type: functional; conditions: time 8 day
Enterococcus faecalis [9] = assay: Antibacterial activity against multidrug resistant Enterococcus faecalis ATCC 51299 infected in cyclophosphamide immunosuppressed mouse model of abdominal infection assessed as reduction in inflammatory infiltration at 1.25 to 5 mg/kg measured after 60 hrs by H and E staining based analysis; assay type: functional, organism-based; conditions: dose 1.25-5 mg/kg
Enterococcus faecalis [10] = assay: Additive antibacterial activity against multidrug resistant Enterococcus faecalis ATCC 51299 assessed as fractional inhibitory concentration in presence of chloramphenicol; assay type: functional
Staphylococcus aureus [11] = assay: Antibacterial activity against methicillin resistant Staphylococcus aureus clinical isolate 003 infected in cyclophosphamide immunosuppressed mouse model of skin wound infection assessed as reduction in bacterial load in wound at 5 mg/kg administered for 7 days and measured on day 8 (reference value: 1.6 x 10^8 CFU); assay type: functional; conditions: time 8 day
Staphylococcus aureus [12] = assay: Additive antibacterial activity against methicillin resistant Staphylococcus aureus clinical isolate 003 assessed as fractional inhibitory concentration in presence of azithromycin; assay type: functional
Staphylococcus aureus [13] = assay: Synergistic antibacterial activity against methicillin resistant Staphylococcus aureus clinical isolate 003 assessed as fractional inhibitory concentration in presence of streptomycin; assay type: functional
Staphylococcus aureus [14] = assay: Additive antibacterial activity against methicillin resistant Staphylococcus aureus clinical isolate 003 assessed as fractional inhibitory concentration in presence of adriamycin hydrochloride; assay type: functional
Staphylococcus aureus [15] = assay: Additive antibacterial activity against methicillin resistant Staphylococcus aureus clinical isolate 003 assessed as fractional inhibitory concentration in presence of chloramphenicol; assay type: functional
Enterococcus faecalis [16] = assay: Antibacterial activity against multidrug resistant Enterococcus faecalis ATCC 51299 infected in cyclophosphamide immunosuppressed mouse model of abdominal infection assessed as reduction in cell degeneration at 1.25 to 5 mg/kg measured after 60 hrs by H and E staining based analysis; assay type: functional, organism-based; conditions: dose 1.25-5 mg/kg
Enterococcus faecalis [17] = assay: Additive antibacterial activity against multidrug resistant Enterococcus faecalis ATCC 51299 assessed as fractional inhibitory concentration in presence of lincomycin hydrochloride; assay type: functional
Enterococcus faecalis [18] = assay: Additive antibacterial activity against multidrug resistant Enterococcus faecalis ATCC 51299 assessed as fractional inhibitory concentration in presence of norfloxacin; assay type: functional
Enterococcus faecalis [19] = assay: Additive antibacterial activity against multidrug resistant Enterococcus faecalis ATCC 51299 assessed as fractional inhibitory concentration in presence of streptomycin; assay type: functional
[20] = Toxicity in Galleria mellonella assessed as survival rate at 1.25 to 10 mg/kg observed after 7 days; assay type: organism-based; conditions: in vivo, dose 1.25-10 mg/kg, time 7 day
Enterococcus faecalis [21] = assay: Synergistic antibacterial activity against multidrug resistant Enterococcus faecalis ATCC 51299 assessed as fractional inhibitory concentration in presence of adriamycin hydrochloride; assay type: functional
Staphylococcus aureus [22] = assay: Synergistic antibacterial activity against methicillin resistant Staphylococcus aureus clinical isolate 003 assessed as fractional inhibitory concentration in presence of norfloxacin; assay type: functional
Staphylococcus aureus [23] = assay: Antibacterial activity against methicillin resistant Staphylococcus aureus clinical isolate 003 in presence of 1 mM/L Mg2+ (reference value: 0.5 ug/ml); assay type: functional
Staphylococcus aureus [24] = assay: Antibacterial activity against methicillin resistant Staphylococcus aureus clinical isolate 003 in presence of 140 mM/L Na+ (reference value: 0.5 ug/ml); assay type: functional
Staphylococcus aureus [25] = assay: Antibacterial activity against methicillin resistant Staphylococcus aureus clinical isolate 003 in presence of 4.5 mM/L K+ (reference value: 0.5 ug/ml); assay type: functional
Staphylococcus aureus [26] = assay: Antibacterial activity against methicillin resistant Staphylococcus aureus clinical isolate 003 in presence of 4.5 mM/L K+ (reference value: 1 ug/ml); assay type: functional
Enterococcus faecalis [27] = assay: Antibacterial activity against multidrug resistant Enterococcus faecalis ATCC 51299 in presence of 4.5 mM/L K+ (reference value: 32 ug/ml); assay type: functional

For `CCCCCCc1c(-c2ccc(OCCCCNCCCN)cc2OCCCCNCCCN)oc2cc(OC)cc(O)c2c1=O`, which MIC (Staphylococcus aureus [1]) is on record?
Its MIC is 0.25 mg/L.

What about the Activity (Staphylococcus aureus [2]) of the same compound?
The Activity was “Active”.

What about the Activity (Enterococcus faecalis [3]) of the same compound?
Its Activity is 92.2%.

What about the “fractional inhibitory concentration index (FICI)” value (Enterococcus faecalis [4]) of the same compound?
The value was 0.375.

What about the “fractional inhibitory concentration index (FICI)” value (Staphylococcus aureus [5]) of the same compound?
Its value is 0.313.

What about the Activity (Enterococcus faecalis [6]) of the same compound?
The Activity was “Active”.

What about the Activity (Staphylococcus aureus [7]) of the same compound?
The Activity was “Active”.

What about the Activity (Staphylococcus aureus [8]) of the same compound?
The Activity was 2.1 mm².

And the Activity (Enterococcus faecalis [9])?
Its Activity is “Active”.

What about the “fractional inhibitory concentration index (FICI)” value (Enterococcus faecalis [10]) of the same compound?
Its value is 0.75.

What about the Activity (Staphylococcus aureus [11]) of the same compound?
Its Activity is 9.4 10^6CFU.

And the “fractional inhibitory concentration index (FICI)” value (Staphylococcus aureus [12])?
Its value is 0.75.

And the “fractional inhibitory concentration index (FICI)” value (Staphylococcus aureus [13])?
Its value is 0.375.

And the “fractional inhibitory concentration index (FICI)” value (Staphylococcus aureus [14])?
The value was 0.75.

And the “fractional inhibitory concentration index (FICI)” value (Staphylococcus aureus [15])?
Its value is 1.

What about the Activity (Enterococcus faecalis [16]) of the same compound?
Its Activity is “Active”.

And the “fractional inhibitory concentration index (FICI)” value (Enterococcus faecalis [17])?
Its value is 1.

And the “fractional inhibitory concentration index (FICI)” value (Enterococcus faecalis [18])?
Its value is 1.

What about the “fractional inhibitory concentration index (FICI)” value (Enterococcus faecalis [19]) of the same compound?
Its value is 0.75.

And the survival at 168 h [20]?
The survival at 168 h was 100%.

And the “fractional inhibitory concentration index (FICI)” value (Enterococcus faecalis [21])?
Its value is 0.5.

And the “fractional inhibitory concentration index (FICI)” value (Staphylococcus aureus [22])?
The value was 0.5.

For `CCCCCCc1c(-c2ccc(OCCCCN(C)C)cc2OCCCCN(C)C)oc2cc(OC)cc(O)c2c1=O`, which MIC (Staphylococcus aureus [23]) is on record?
The MIC was 0.5 mg/L.

What about the MIC (Staphylococcus aureus [24]) of the same compound?
Its MIC is 1 mg/L.

And the MIC (Staphylococcus aureus [25])?
Its MIC is 0.5 mg/L.

Which results are given for `CCCCCCc1c(-c2ccc(OCC(=O)CN[C@H](CCCNC(=N)N)C(=O)OC)cc2OCC(=O)CN[C@H](CCCNC(=N)N)C(=O)OC)oc2cc(OC)cc(O)c2c1=O`?
MIC (Staphylococcus aureus [26]): 2 mg/L; MIC (Enterococcus faecalis [27]): 32 mg/L
